Experimental data as given in patent US20250082651A1, “GANAXOLONE FOR USE IN TREATING GENETIC EPILEPTIC DISORDERS” (Marinus Pharmaceuticals, Inc., priority 2017, published 2025).
“And” between values parts separate entries of the source, which are not always exact repeats. Equal entries are not always repeated.

Columns and labels:
[1] = Solubility of ganaxolone in solvents; type: physicochemical
Protocol: Ganaxolone is insoluble in water. Its solubilities in 95% alcohol, propylene glycol and polyethylene glycol are 13 mg/mL, 3.5 mg/mL and 3.1 mg/mL, respectively.
The pregnenolone neurosteroid (e.g., ganaxolone) formulations suitable for use in the present invention may also be administered parenterally. In such embodiments, the formulations are suitable for intramuscular, subcutaneous, or intravenous injection may comprise physiologically acceptable sterile aqueous or non-aqueous solutions, dispersions, suspensions or emulsions, and sterile powders for reconstitution into sterile injectable solutions or dispersions. Examples of suitable aqueous and non-aqueous carriers, diluents, solvents, or vehicles including water, ethanol, polyols (propylene glycol, polyethylene-glycol, glycerol, cremophor and the like), suitable mixtures thereof, vegetable oils (such as olive oil) and injectable organic esters such as ethyl oleate. Additionally, Ganaxolone can be dissolved at concentrations of >1 mg/ml using water soluble beta cyclodextrins (e.g. beta-sulfobutyl-cyclodextrin and 2-hydroxypropylbetacyclodextrin). A particularly suitable cyclodextrin is a substituted-β-cyclodextrin is CAPTISOL® (cyckodextrin). […]

[2] = system: children with PCDH19 epilepsy; test: Phase 2 open-label trial, PCDH19 cohort, seizure efficacy; type: in vivo, human
Excerpt: Example 3 concerns a Phase 2 Multicenter, Open-Label Proof-of-Concept Trial of ganaxolone (GNX) in cohorts of children having genetic epilepsies (PCDH19, CDKL5 LGS, and CSWS) (ClinicalTrials.gov Identifier: NCT02358538). There were 11 female children with PCDH19 epilepsy between 5-16 years old with a confirmed genetic mutation. There were 6 female and 1 male children with confirmed genetic mutations in the CDKL5 cohort. There were 10 children in the Lennox Gastaut Syndrome cohort. Two children with CSWS were enrolled into the study. The study was conducted with 12 weeks baseline, and up to 26 weeks of treatment followed by a 52 week open label treatment. The primary efficacy was the percentage change in seizure frequency per 28 days relative to baseline calculated using daily seizure diary. [Time Frame: 26 weeks]. Secondary Outcome Measures were: Clinician Global Impression of Change score as assessed by questionnaire. [Time Frame: 26 Weeks]; Patient Global Impression of Change score as assessed by questionnaire. [Time Frame: 26 Weeks]; Evaluation of safety and tolerability of open-label ganaxolone as adjunctive therapy for uncontrolled seizures in children with rare genetic epilepsies, based on adverse event log and other clinical safety assessments. [Time Frame: 26 weeks]; Responder rates [Time Frame: 26 weeks]; and Seizure free days [Time Frame: 26 weeks].
Following screening and baseline evaluations, consenting patients enrolled into a 26-week study during which investigators were allowed to flexibly dose ganaxolone up to a dose of 1,800 mg/day for patients whose body weight was >30 kg, or up to 63 mg/kg/day for patients whose body-weight was <30 kg. The primary efficacy measure is % change from baseline in the 28-day seizure frequency count. Safety and tolerability were within the secondary objectives of the study.
In this study, oral ganaxolone suspension or capsules were administered up to a total of 63 mg/kg/day (maximum 1800 mg/day) over 2-4 weeks. About six-eight titration steps are used, depending on the size of the patient. Children larger than 30 kg may take the ganaxolone capsules. The ganaxolone oral suspension was administered through an oral dosing syringe three times daily. The ganaxolone capsules were administered twice daily. The patients experience better absorption of the ganaxolone with meals (milk).
In total, 11 female subjects between 4 and 15 years of age with a confirmed PCDH19 genetic mutation and uncontrolled seizures despite antiepileptic pharmacotherapy were enrolled. Ganaxolone was studied as an adjunctive treatment, administered as either PO liquid suspension or capsules according to the titration schedule in Tables 7 and 8, for 26 weeks after establishing up to 12 weeks of baseline seizure frequency. Primary and secondary endpoints were the same as for the CDKL5 deficiency disorder cohort.
After establishing baseline seizure frequency, qualifying subjects entered the study and were treated with open-label ganaxolone oral suspension or ganaxolone capsules at doses up to a maximum of 1800 mg/day for up to 6 months. Maximum study participation was 94 weeks: a screening period up to 12 weeks to establish baseline seizure frequency, up to 26 weeks of treatment, a 52 week extension for subjects who benefited from ganaxolone treatment, and up to 4 weeks of down titration period. […] Refractive cases of LGS or CSWS that had prior response to steroid or ACTH could also have been enrolled.
Ganaxolone oral suspension was administered through an oral dosing syringe by parent or legal guardian 3 times daily (TID), following the morning, noon, and evening meal or snack. Each dose was separated by a minimum of 4 hours and a maximum of 8 hours. A missed dose of ganaxolone could have been taken up to 4 hours before the next scheduled dose; otherwise, the missed dose was not to be given. […]

[3] = individual PCDH19 subjects 1-11
[4] = preliminary data, 11 PCDH19 patients

Compound: CC(=O)[C@H]1CC[C@H]2[C@@H]3CC[C@H]4C[C@](C)(O)CC[C@]4(C)[C@H]3CC[C@]12C [Ganaxolone, 3α-hydroxy-3β-methyl-5α-pregnan-20-one]
- Dissolved concentration ([1]; using water soluble beta cyclodextrins): > 1 mg/mL
- Solubility in water ([1]; water): insoluble
- Median change (decrease) in 28-day seizure frequency from baseline ([2]; PCDH19, ITT / all-comers n=11, 4 patients LOCF): 26%
- Median change (increase) from baseline in seizure-free days ([2]; PCDH19, ITT n=11): 14%
- Median % change seizure rates, biomarker-negative subjects ([2]; PCDH19, n=4, Allo-S>2,500 pg mL^−1, retrospective): 247%
- Seizure frequency at 6 months compared to baseline, biomarker-positive group ([2]; PCDH19, p=0.02, Wilcoxon): significantly improved
- Seizure frequency at 6 months compared to baseline, biomarker-negative (high Allo-S) group ([2]; PCDH19, p=0.25, Wilcoxon): did not improve
- 28-day seizure frequency, sum of individual seizures and clusters, post-baseline 26-week open-label period, Mean (SD) ([2]; PCDH19 N=11, MITT): 19.85
- 28-day seizure frequency, sum of individual seizures and clusters, post-baseline 26-week open-label period, Median ([2]; PCDH19 N=11, MITT): 5.42
- 28-day seizure frequency, sum of individual seizures and clusters, post-baseline through Month 3 (Day 91), Mean (SD) ([2]; PCDH19 N=11, MITT): 19.82
- 28-day seizure frequency, sum of individual seizures and clusters, post-baseline through Month 3 (Day 91), Median ([2]; PCDH19 N=11, MITT): 7.78
- Percent change from baseline (at Day 91), 28-day seizure frequency, sum of individual seizures and clusters, Mean (SD) ([2]; PCDH19 N=11, MITT): 52.83%
- Percent change from baseline (at Day 91), 28-day seizure frequency, sum of individual seizures and clusters, Median ([2]; PCDH19 N=11, MITT): 25.98% and −25.98%
- Percent change from baseline (at Week 26), 28-day seizure frequency, sum of individual seizures and clusters, Mean (SD) ([2]; PCDH19 N=11, MITT): 46.36%
- Percent change from baseline (at Week 26), 28-day seizure frequency, sum of individual seizures and clusters, Median ([2]; PCDH19 N=11, MITT): 24.59% and −24.59%
- % change seizure rate-12 month, Mean ([2]; PCDH19 cohort, N=7): 51.34%
- % change seizure rate-12 month, Median ([2]; PCDH19 cohort, N=7): −8.57%
- Post-baseline 28-day seizure rate-12 month, Mean ([2]; PCDH19 cohort, N=7): 24.25
- Post-baseline 28-day seizure rate-12 month, Median ([2]; PCDH19 cohort, N=7): 19.44
- % change seizure rate-3 month, Mean ([2]; PCDH19 cohort, N=11): 105.59%
- % change seizure rate-3 month, Median ([2]; PCDH19 cohort, N=11): −7.37%
- % change seizure rate-6 month, Mean ([2]; PCDH19 cohort, N=11): 103.72%
- % change seizure rate-6 month, Median ([2]; PCDH19 cohort, N=11): −25.68%
- Post-baseline 28-day seizure rate-3-month, Mean ([2]; PCDH19 cohort, N=11): 84.51
- Post-baseline 28-day seizure rate-3-month, Median ([2]; PCDH19 cohort, N=11): 15.81
- Post-baseline 28-day seizure rate-6 month, Mean ([2]; PCDH19 cohort, N=11): 84.41
- Post-baseline 28-day seizure rate-6 month, Median ([2]; PCDH19 cohort, N=11): 15.81
- Mean percent change in 28-day total seizure frequency from baseline to Week 26 ([2]; PCDH19 cohort, PP Population): 60.99%
- Median percent change in 28-day total seizure frequency from baseline to Week 26 ([2]; PCDH19 cohort, PP Population): 22.11%
- Clinical global impression of improvement: much improved ([2]; PCDH19 cohort, end of Week 26): 2 subjects
- Clinical global impression of improvement: very much improved ([2]; PCDH19 cohort, end of Week 26): 2 subjects
- 28-day individual seizure frequency, post-baseline 26-Week open-label period, Mean (SD) ([2]; PCDH19 n=11, MITT): 7.28
- 28-day individual seizure frequency, post-baseline 26-Week open-label period, Median ([2]; PCDH19 n=11, MITT): 2.26
- 28-day individual seizure frequency, post-baseline through Month 3 (Day 91), Mean (SD) ([2]; PCDH19 n=11, MITT): 7.29
- 28-day individual seizure frequency, post-baseline through Month 3 (Day 91), Median ([2]; PCDH19 n=11, MITT): 2.49
- Percent change from baseline (at Day 91), 28-day individual seizure frequency, Mean (SD) ([2]; PCDH19 n=11, MITT): −16.92%
- Percent change from baseline (at Day 91), 28-day individual seizure frequency, Median ([2]; PCDH19 n=11, MITT): −38.48%
- Percent change from baseline (at Week 26), 28-day individual seizure frequency, Mean (SD) ([2]; PCDH19 n=11, MITT): −23.95%
- Percent change from baseline (at Week 26), 28-day individual seizure frequency, Median ([2]; PCDH19 n=11, MITT): −34.48%
- Median percent reduction in seizures ([2]; children with PCDH19 disorder): 34%
- 28-day seizure free days % change at 3 months [2, 3]: 8% and 18% (2×) and 49% and −7% and −19% and −89% and 23% and 39% and 880% and 4%
- 28-day seizure free days % change at 6 months [2, 3]: 7% and 27% and 14% and 32% and −3% and 890% and 5%
- 28-day seizure rate % change at 3 months [2, 3]: −33.29% and 31.36% and −7.37% and −4.38% and 106.67% and 353.25% and 1020.50% and −100.00% and −78.83% and −74.17% and −52.30%
- 28-day seizure rate % change at 6 months [2, 3]: −33.22% and −25.68% and −5.26% and −2.56% and 140.00% and early term (2×) and rash and sz returned and −73.47% and −53.85%
- Patients achieving greater than 50% seizure reduction that persisted for greater than 6 months [2, 4]: 4 patients
- Patients with some degree of seizure reduction [2, 4]: 9 of 11
